# How the values were obtained:
# [1] = Stability versus concentration, vial size and headspace gas at +40° C. (Table 6); assay type: physicochemical; details: 400 mg/ml
# Experimental: For the 10 ml vial size, the fill volume was 10.7 ml; and for the 20 ml vial size, the fill volume was 20.7 ml.
# [2] = test system: S. aureus; assay: Antimicrobial efficacy (European Pharmacopoeia 2000, Chapter 5.1.3); assay type: cell-based
# Experimental: (§1) The antimicrobial efficacy was tested for three different solutions: […] iii) a carbonate buffer control. The tests were performed according to European Pharmacopoeia 2000, Chapter 5.1.3, pages 259 to 260. Seven 10 ml vials were inoculated, one per test organism. During the tests, the vials were stored at controlled room temperature and protected from light. At different time intervals, samples were withdrawn and after appropriate dilutions the numbers of viable microorganisms (colony forming units per ml, CFU/ml) were determined using standard plate count procedures.
# [3] = test system: E. gergoviae; assay: as above; assay type: cell-based; details: for Number of CFUs per ml - Time after Inoculation: E. gergoviae
# Experimental: as §1
# [4] = test system: E. coli; assay: as above; assay type: cell-based
# Experimental: as §1
structure (smiles),measurement,setting,value
"CC(C)(C)[N+]([O-])=Cc1ccc(S(=O)(=O)[O-])cc1S(=O)(=O)[O-].[Na+].[Na+] [α-(2,4-disulfophenyl)-N-tert-butylnitrone disodium salt]",Amount of Aldehyde (II),"[1]; 10 ml vial, air in headspace, initial",0.3 w/w %
same,Amount of Aldehyde (II),"[1]; 20 ml vial, N2 in headspace, 2 months at +40° C.",0.5 w/w %
same,Amount of Aldehyde (II),"[1]; 20 ml vial, N2 in headspace, 3 months at +40° C.",0.5 w/w %
same,Amount of Aldehyde (II),"[1]; 20 ml vial, N2 in headspace, initial",0.3 w/w %
same,Amount of Aldehyde (II),"[1]; 20 ml vial, air in headspace, 2 months at +40° C.",0.7 w/w %
same,Amount of Aldehyde (II),"[1]; 20 ml vial, air in headspace, 3 months at +40° C.",0.8 w/w %
same,Amount of Aldehyde (II),"[1]; 20 ml vial, air in headspace, initial",0.3 w/w %
same,Number of CFUs per ml - Time after Inoculation,"[2]; 10 mg/ml, 6 h",4.5 × 10^5 CFUs per ml
same,Number of CFUs per ml - Time after Inoculation,"[2]; 10 mg/ml, 24 h",4.5 × 10^3 CFUs per ml
same,Number of CFUs per ml - Time after Inoculation,"[2]; 10 mg/ml, 48 h",≦10 CFUs per ml
same,Number of CFUs per ml - Time after Inoculation,"[2]; 10 mg/ml, 7 days",<1 CFUs per ml
same,Number of CFUs per ml - Time after Inoculation,"[2]; 10 mg/ml, 14 days",<1 CFUs per ml
same,Number of CFUs per ml - Time after Inoculation,"[2]; 10 mg/ml, 21 days",<1 CFUs per ml
same,Number of CFUs per ml - Time after Inoculation,"[2]; 10 mg/ml, 28 days",<1 CFUs per ml
same,Number of CFUs per ml - Time after Inoculation,"[2]; 10 mg/ml, <1 min",2.0 × 10^6 CFUs per ml
same,Number of CFUs per ml - Time after Inoculation,"[2]; 400 mg/ml, 6 h",6.7 × 10^5 CFUs per ml
same,Number of CFUs per ml - Time after Inoculation,"[2]; 400 mg/ml, 24 h",8.7 × 10^2 CFUs per ml
same,Number of CFUs per ml - Time after Inoculation,"[2]; 400 mg/ml, 48 h",3.8 × 10^2 CFUs per ml
same,Number of CFUs per ml - Time after Inoculation,"[2]; 400 mg/ml, 7 days",<1 CFUs per ml
same,Number of CFUs per ml - Time after Inoculation,"[2]; 400 mg/ml, 14 days",<1 CFUs per ml
same,Number of CFUs per ml - Time after Inoculation,"[2]; 400 mg/ml, 21 days",<1 CFUs per ml
same,Number of CFUs per ml - Time after Inoculation,"[2]; 400 mg/ml, 28 days",<1 CFUs per ml
same,Number of CFUs per ml - Time after Inoculation,"[2]; 400 mg/ml, <1 min",3.3 × 10^6 CFUs per ml
same,Number of CFUs per ml - Time after Inoculation,"[3]; 10 mg/ml, 6 h",2.0 × 10^5 CFUs per ml
same,Number of CFUs per ml - Time after Inoculation,"[3]; 10 mg/ml, 24 h",≦10 CFUs per ml
same,Number of CFUs per ml - Time after Inoculation,"[3]; 10 mg/ml, 48 h",<1 CFUs per ml
same,Number of CFUs per ml - Time after Inoculation,"[3]; 10 mg/ml, 7 days",<1 CFUs per ml
same,Number of CFUs per ml - Time after Inoculation,"[3]; 10 mg/ml, 14 days",<1 CFUs per ml
same,Number of CFUs per ml - Time after Inoculation,"[3]; 10 mg/ml, 21 days",<1 CFUs per ml
same,Number of CFUs per ml - Time after Inoculation,"[3]; 10 mg/ml, 28 days",<1 CFUs per ml
same,Number of CFUs per ml - Time after Inoculation,"[3]; 10 mg/ml, <1 min",8.0 × 10^5 CFUs per ml
same,Reduction in colony forming units per ml (CFU/ml),"[3]; 400 mg/ml, E. gergovia, within 6 hours",≥ 10^3 fold
same,Number of CFUs per ml - Time after Inoculation,"[3]; 400 mg/ml, 6 h",1.3 × 10^2 CFUs per ml
same,Number of CFUs per ml - Time after Inoculation,"[3]; 400 mg/ml, 24 h",<1 CFUs per ml
same,Number of CFUs per ml - Time after Inoculation,"[3]; 400 mg/ml, 48 h",<1 CFUs per ml
same,Number of CFUs per ml - Time after Inoculation,"[3]; 400 mg/ml, 7 days",<1 CFUs per ml
same,Number of CFUs per ml - Time after Inoculation,"[3]; 400 mg/ml, 14 days",<1 CFUs per ml
same,Number of CFUs per ml - Time after Inoculation,"[3]; 400 mg/ml, 21 days",<1 CFUs per ml
same,Number of CFUs per ml - Time after Inoculation,"[3]; 400 mg/ml, 28 days",<1 CFUs per ml
same,Number of CFUs per ml - Time after Inoculation,"[3]; 400 mg/ml, <1 min",5.2 × 10^5 CFUs per ml
same,Number of CFUs per ml - Time after Inoculation,"[4]; 10 mg/ml, 6 h",9.0 × 10^5 CFUs per ml
same,Number of CFUs per ml - Time after Inoculation,"[4]; 10 mg/ml, 24 h",5.0 × 10^4 CFUs per ml
same,Number of CFUs per ml - Time after Inoculation,"[4]; 10 mg/ml, 48 h",≦10 CFUs per ml
same,Number of CFUs per ml - Time after Inoculation,"[4]; 10 mg/ml, 7 days",<1 CFUs per ml
same,Number of CFUs per ml - Time after Inoculation,"[4]; 10 mg/ml, 14 days",<1 CFUs per ml
same,Number of CFUs per ml - Time after Inoculation,"[4]; 10 mg/ml, 21 days",<1 CFUs per ml
same,Number of CFUs per ml - Time after Inoculation,"[4]; 10 mg/ml, 28 days",<1 CFUs per ml
same,Number of CFUs per ml - Time after Inoculation,"[4]; 10 mg/ml, <1 min",1.5 × 10^6 CFUs per ml
same,Number of CFUs per ml - Time after Inoculation,"[4]; 400 mg/ml, 6 h",4.1 × 10^4 CFUs per ml
same,Number of CFUs per ml - Time after Inoculation,"[4]; 400 mg/ml, 24 h",<1 CFUs per ml
same,Number of CFUs per ml - Time after Inoculation,"[4]; 400 mg/ml, 48 h",<1 CFUs per ml
same,Number of CFUs per ml - Time after Inoculation,"[4]; 400 mg/ml, 7 days",<1 CFUs per ml
same,Number of CFUs per ml - Time after Inoculation,"[4]; 400 mg/ml, 14 days",<1 CFUs per ml
same,Number of CFUs per ml - Time after Inoculation,"[4]; 400 mg/ml, 21 days",<1 CFUs per ml
same,Number of CFUs per ml - Time after Inoculation,"[4]; 400 mg/ml, 28 days",<1 CFUs per ml
same,Number of CFUs per ml - Time after Inoculation,"[4]; 400 mg/ml, <1 min",3.8 × 10^5 CFUs per ml

# Source: patent US20030181527A1, “Novel formulations of alpha-2,4-disulfophenyl-n-tert-butylnitrone” (priority 2000, published 2003)
